The record followed here is ChEMBL document CHEMBL5528028, “Discovery of benzopyridone cyanoacetates as new type of potential broad-spectrum antibacterial candidates” (Eur J Med Chem, 2024).

Series [1] has as its system Cell membrane. Put plainly: Induction of disruption of membrane integrity in Staphylococcus aureus ATCC 29213 assessed as leakage of intracellular proteins by Acid Blue 90 based assay. The series is classed as cell membranes.
Series [2] has as its system Staphylococcus aureus. Put plainly: Induction of ROS generation in Staphylococcus aureus ATCC 29213 assessed as loss of GSH activity by Ellmans method. It counts as functional, organism-based.
In series [3] the test system is Staphylococcus aureus. As to the kind of experiment: Antibacterial activity against Staphylococcus aureus assessed growth inhibition by micro broth dilution method. It counts as functional. Background: Dilution methods test growth across graded concentrations, often in twofold steps.
The test system of series [4] is Klebsiella pneumoniae. As to the kind of experiment: Antibacterial activity against Klebsiella pneumonia assessed growth inhibition by micro broth dilution method. It counts as functional.
The subject of series [5] is Cell membrane. Put plainly: Induction of disruption of membrane integrity in Klebsiella pneumonia assessed as leakage of intracellular proteins by Acid Blue 90 based assay. Conditions: Klebsiella pneumoniae. It counts as cell membranes.
For series [6], the system named is Staphylococcus aureus. As to the kind of experiment: Antibacterial activity against methicillin-resistant Staphylococcus aureus assessed growth inhibition by micro broth dilution method. It counts as functional.
The subject of series [7] is Cell membrane. Put plainly: Induction of outer membrane permeability in Klebsiella pneumonia assessed as increase in fluorescence intensity at 2 times of MIC by N-phenyl naphthylamine (NPN) dye based assay. Conditions: Klebsiella pneumoniae. The series is classed as cell membranes.
For series [8], the system named is Escherichia coli. As to the kind of experiment: Antibacterial activity against Escherichia coli ATCC 25922 assessed growth inhibition by micro broth dilution method. It counts as functional.
In series [9] the test system is Escherichia coli. As to the kind of experiment: Antibacterial activity against Escherichia coli assessed growth inhibition by micro broth dilution method. The series is classed as functional.
Series [10] concerns Klebsiella pneumoniae. As to the kind of experiment: Induction of ROS generation in Klebsiella pneumonia assessed as increase in fluorescence intensity by DCFH-DA based microscopic analysis. It counts as functional, organism-based.
The next series has as its system Acinetobacter baumannii. As to the kind of experiment: Antibacterial activity against Acinetobacter baumannii assessed growth inhibition by micro broth dilution method. It counts as functional.
The test system of series [11] is Klebsiella pneumoniae. As to the kind of experiment: Antibacterial activity against Klebsiella pneumonia assessed as decrease in relative metabolic activity at 4 times of MIC by Alamar Blue assays. It counts as functional, organism-based. Background: Resazurin is reduced to fluorescent resorufin, in cell work by metabolically active cells.
For series [12], the system named is Staphylococcus aureus. Put plainly: Antibacterial activity against Staphylococcus aureus ATCC 29213 assessed as decrease in relative metabolic activity at 4 times of MIC by Alamar Blue assays. The series is classed as functional, organism-based.
Series [13] concerns Cell membrane. As to the kind of experiment: Induction of cytoplasmic membrane depolarization in Klebsiella pneumonia assessed as increase in fluorescence intensity at 2 times of MIC measured upto 40 mins by DiSC35 dye based fluorescence method. The series is classed as cell membranes. Conditions: Klebsiella pneumoniae.
The subject of series [14] is Cell membrane. Put plainly: Induction of cytoplasmic membrane depolarization in Staphylococcus aureus ATCC 29213 assessed as increase in fluorescence intensity at 2 times of MIC measured upto 40 mins by DiSC35 dye based fluorescence method. It counts as cell membranes.
In series [15] the test system is Pseudomonas aeruginosa. Put plainly: Antibacterial activity against Pseudomonas aeruginosa ATCC 27853 assessed growth inhibition by micro broth dilution method. The series is classed as functional.
Series [16] deals with Klebsiella pneumoniae. Put plainly: Bactericidal activity against Klebsiella pneumonia assessed as time dependent killing at 4 times of MIC measured at 8 hrs. The series is classed as functional, organism-based.
The subject of series [17] is Klebsiella pneumoniae. As to the kind of experiment: Induction of ROS generation in Klebsiella pneumonia assessed as loss of GSH activity by Ellmans method. It counts as functional, organism-based. (In general: In Ellman's method for cholinesterases, released thiocholine reacts with DTNB.)
The subject of another series is Erythrocyte. Put plainly: Hemolytic activity in human RBC incubated measured upto 128 ug/ml. It counts as toxicity, cell-based. Conditions: dose < 128 µg/ml.
In series [18] the test system is Staphylococcus aureus. Put plainly: Antibacterial activity against Staphylococcus aureus ATCC 25923 assessed growth inhibition by micro broth dilution method. The series is classed as functional.
Series [19] relates to Staphylococcus aureus. Put plainly: Induction of ROS generation in Staphylococcus aureus ATCC 29213 assessed as increase in fluorescence intensity by DCFH-DA based microscopic analysis. It counts as functional, organism-based.
Series [20] has as its system Staphylococcus aureus. As to the kind of experiment: Bactericidal activity against Staphylococcus aureus ATCC 29213 assessed as time dependent killing at 4 times of MIC measured at 8 hrs. It counts as functional, organism-based.
Series [21] has as its system Staphylococcus aureus. Put plainly: Antibacterial activity against Staphylococcus aureus ATCC 29213 assessed growth inhibition by micro broth dilution method. The series is classed as functional.
The next series deals with Enterococcus faecalis. As to the kind of experiment: Antibacterial activity against Enterococcus faecalis assessed growth inhibition by micro broth dilution method. It counts as functional.
The test system of series [22] is Pseudomonas aeruginosa. As to the kind of experiment: Antibacterial activity against Pseudomonas aeruginosa assessed growth inhibition by micro broth dilution method. It counts as functional.
A short description of series [23]: Cytotoxicity against human NOK cells assessed as cell viability at 8 ug/ml. The series is classed as toxicity, cell-based. Conditions: nok-si, dose 8 µg/ml.
Series [24] is described as follows: Cytotoxicity against human FHC cells assessed as cell viability at 8 ug/ml. It counts as toxicity, cell-based. Conditions: at 8 µg/mL, read-out: Activity.
The nature of series [25]: Thermodynamic solubility of the compound in water. It counts as physicochemical. Conditions: read-out: Therm_solubility.
Series [26] has as its system Klebsiella pneumoniae. Put plainly: Anti-biofilm activity against Klebsiella pneumonia assessed as relative biofilm clearance rate at 8 times of MIC by crystal violet staining based assay. The series is classed as functional.
The subject of series [27] is Staphylococcus aureus. Put plainly: Anti-biofilm activity against Staphylococcus aureus ATCC 29213 assessed as relative biofilm clearance rate at 8 times of MIC by crystal violet staining based assay. The series is classed as functional.
For series [28], the system named is Klebsiella pneumoniae. As to the kind of experiment: Induction of resistance development in Klebsiella pneumonia assessed as after 20 passages measured upto 4.5 times of MIC. It counts as functional.
Series [29] relates to Staphylococcus aureus. Put plainly: Anti-biofilm activity against Staphylococcus aureus ATCC 29213 assessed as relative biofilm clearance rate by crystal violet staining based assay. The series is classed as functional, organism-based.
Series [30] relates to Klebsiella pneumoniae. As to the kind of experiment: Antibacterial activity against Klebsiella pneumonia assessed as morphological changes by measuring shrunken and cracked cells at 4 times of MIC by SEM microscopic analysis. It counts as functional, organism-based.
The subject of series [31] is Cell membrane. Put plainly: Induction of inner membrane permeability in Klebsiella pneumonia assessed as increase in fluorescence intensity by propidium iodide uptake based microscopic imaging assay. It counts as cell membranes. Conditions: Klebsiella pneumoniae.
Series [32] relates to Staphylococcus aureus. As to the kind of experiment: Induction of resistance development in Staphylococcus aureus ATCC 29213 assessed as after 20 passages measured upto 4.5 times of MIC. It counts as functional.
In series [33] the test system is Klebsiella pneumoniae. As to the kind of experiment: Anti-biofilm activity against Klebsiella pneumonia assessed as relative biofilm clearance rate by crystal violet staining based assay. It counts as functional, organism-based.
Series [34] has as its system Cell membrane. Put plainly: Induction of inner membrane permeability in Staphylococcus aureus ATCC 29213 assessed as increase in fluorescence intensity by propidium iodide uptake based microscopic imaging assay. It counts as cell membranes.
Series [35] concerns Calf thymus DNA. As to the kind of experiment: Binding affinity to calf thymus DNA assessed as change in absorption by UV-Vis absorption spectra analysis. The series is classed as nucleic-acid assay. Conditions: Bos taurus.
Series [36] has as its system Staphylococcus aureus. Put plainly: Antibacterial activity against Staphylococcus aureus ATCC 29213 assessed as morphological changes by measuring shrunken and cracked cells at 4 times of MIC by SEM microscopic analysis. It counts as functional, organism-based.
In series [37] the test system is Calf thymus DNA. As to the kind of experiment: Induction of calf thymus DNA double helix loss assessed as reduction in fluorescence intensity at 525 nm wavelength by acridine orange competition based assay. The series is classed as nucleic-acid assay. Conditions: Bos taurus.

SMILES strings stand for the structures. In brackets after ≈: the same amount, converted by molar mass. Activity calls are given as the source filed them.

The MIC is the smallest concentration in the dilution series that meets the test's criterion for growth inhibition. High values mean weaker potency, low ones greater potency. As to `CCOC(=O)C(C#N)c1cc2c(cc1F)c(=O)c(C(=O)O)cn2C1CC1` (stereo not drawn), the Activity entry with Cell membrane [1], in the series with Staphylococcus aureus [2], in the series on Cell membrane [5], with Cell membrane [7], in the series with Klebsiella pneumoniae [10] and in the series with Klebsiella pneumoniae [17] was “Dose-Dependent Effect” in each case. For the same compound, the Activity entry is “Non-Toxic” in the series with Erythrocyte and “Dose-Dependent Effect” in the series on Staphylococcus aureus [19]. Besides, the MIC came to 0.5 µg/mL (≈ 1.4 µM) against Staphylococcus aureus [3]; 0.25 µg/mL (≈ 0.698 µM) in the series with Klebsiella pneumoniae [4]; 2 µg/mL (≈ 5.58 µM) with Staphylococcus aureus [6]; 0.5 µg/mL (≈ 1.4 µM) in the series on Escherichia coli [8]; 32 µg/mL (≈ 89.3 µM) in the series with Escherichia coli [9]; 1 µg/mL (≈ 2.79 µM) against Acinetobacter baumannii. Moreover, the MIC against Pseudomonas aeruginosa [15] worked out at 4 µg/mL (≈ 11.2 µM); against Staphylococcus aureus [18], 8 µg/mL (≈ 22.3 µM); against Staphylococcus aureus [21], 0.5 µg/mL (≈ 1.4 µM); in the series on Enterococcus faecalis it was 64 µg/mL (≈ 179 µM); against Pseudomonas aeruginosa [22], 16 µg/mL (≈ 44.7 µM). In addition, the result with Klebsiella pneumoniae [11], in the series with Staphylococcus aureus [12], in the series with Cell membrane [13] (DISRUPTING AGENT), in the series with Cell membrane [14], in the series on Klebsiella pneumoniae [16] and in the series with Staphylococcus aureus [20] was Active.
As for `CCOC(=O)c1cn(Cc2ccc(Cl)cc2Cl)c2cc([C-](C#N)C(=O)OCC)c(F)cc2c1=O.[Na+]` (stereo not drawn), the MIC in the series on Staphylococcus aureus [3] came out at 32 µg/mL; with Klebsiella pneumoniae [4] it was 0.25 µg/mL; against Staphylococcus aureus [6], 16 µg/mL; in the series with Escherichia coli [8], 0.25 µg/mL; against Escherichia coli [9], 0.5 µg/mL; against Acinetobacter baumannii, 2 µg/mL. The minimum inhibitory concentration (MIC) turned out to be 0.5 µg/mL in the series with Pseudomonas aeruginosa [15]; 0.25 µg/mL against Staphylococcus aureus [18]; 0.25 µg/mL in the series with Staphylococcus aureus [21]; 1 µg/mL with Enterococcus faecalis; 4 µg/mL with Pseudomonas aeruginosa [22]. In addition, the Activity result (in series [23]; in the series with Erythrocyte) was “Non-Toxic” throughout. In series [24], the viability at 8 ug/ml turned out to be 70%.
With `CCOC(=O)c1cn(Cc2ccc(Cl)c(Cl)c2)c2cc([C-](C#N)C(=O)OCC)c(F)cc2c1=O.[Na+]` (stereo not drawn), the solubility thermodynamic in series [25] is 97.3 µg/mL. Further, the MIC is 64 µg/mL in the series with Staphylococcus aureus [3]; 0.25 µg/mL against Klebsiella pneumoniae [4]; 8 µg/mL with Staphylococcus aureus [6]; 0.25 µg/mL against Escherichia coli [8]; 0.25 µg/mL in the series with Escherichia coli [9]; 1 µg/mL in the series on Acinetobacter baumannii. For the same compound, the minimum inhibitory concentration (MIC) against Pseudomonas aeruginosa [15] was determined as 0.5 µg/mL; in the series on Staphylococcus aureus [18], 0.25 µg/mL; against Staphylococcus aureus [21] it was 0.25 µg/mL; against Enterococcus faecalis, 1 µg/mL; in the series on Pseudomonas aeruginosa [22], 4 µg/mL. The Activity with Klebsiella pneumoniae [26] and with Staphylococcus aureus [27] was 70% each time.
On to `CCCCCCCCn1cc(C(=O)OCC)c(=O)c2cc(F)c(C(C#N)C(=O)OCC)cc21` (stereo not drawn), for which the Activity result in the series on Cell membrane [1], in the series with Staphylococcus aureus [2], with Staphylococcus aureus [29], with Cell membrane [5], with Cell membrane [7] and with Cell membrane [31] was “Dose-Dependent Effect” in each case. Moreover, the Activity result in the series on Klebsiella pneumoniae [10], in the series with Klebsiella pneumoniae [33], in the series with Klebsiella pneumoniae [17], in the series on Staphylococcus aureus [19] and with Cell membrane [34] was “Dose-Dependent Effect” throughout. In addition, the result with Klebsiella pneumoniae [28], with Klebsiella pneumoniae [30], in the series with Klebsiella pneumoniae [11], in the series with Staphylococcus aureus [12], in the series with Cell membrane [13] and in the series with Cell membrane [13] (DISRUPTING AGENT) was Active. Moreover, the outcome in the series with Cell membrane [14], in the series with Staphylococcus aureus [32], in the series with Klebsiella pneumoniae [16], in the series on Staphylococcus aureus [20], in the series with Calf thymus DNA [35] and with Staphylococcus aureus [36] was Active. In the series on Calf thymus DNA [37], the result was Active.
With `CCCn1cc(C(=O)OCC)c(=O)c2cc(F)c(F)cc21`, the minimum inhibitory concentration (MIC) with Staphylococcus aureus [3] came out at 64 µg/mL (≈ 217 µM); against Klebsiella pneumoniae [4], 64 µg/mL (≈ 217 µM); against Staphylococcus aureus [6] it was 256 µg/mL (≈ 867 µM); against Escherichia coli [8], 128 µg/mL (≈ 433 µM); in the series with Escherichia coli [9] it was 32 µg/mL (≈ 108 µM); in the series on Acinetobacter baumannii, 256 µg/mL (≈ 867 µM). Moreover, the minimum inhibitory concentration (MIC) with Pseudomonas aeruginosa [15] came to 256 µg/mL (≈ 867 µM); with Staphylococcus aureus [18], 256 µg/mL (≈ 867 µM); against Staphylococcus aureus [21], 128 µg/mL (≈ 433 µM); in the series with Enterococcus faecalis, 256 µg/mL (≈ 867 µM); in the series with Pseudomonas aeruginosa [22] it was 128 µg/mL (≈ 433 µM).
